ChEMBL document CHEMBL5113368, “Meroterpenoids produced by fungi: Occurrence, structural diversity, biological activities, and their molecular targets” (Eur J Med Chem, 2021)

Key:
[1] = biological target: T1, Prostaglandin G/H synthase 2 (Homo sapiens, UniProt P35354); experiment: Inhibition of COX-2 (unknown origin)
T1 sequence (P35354 whole entry): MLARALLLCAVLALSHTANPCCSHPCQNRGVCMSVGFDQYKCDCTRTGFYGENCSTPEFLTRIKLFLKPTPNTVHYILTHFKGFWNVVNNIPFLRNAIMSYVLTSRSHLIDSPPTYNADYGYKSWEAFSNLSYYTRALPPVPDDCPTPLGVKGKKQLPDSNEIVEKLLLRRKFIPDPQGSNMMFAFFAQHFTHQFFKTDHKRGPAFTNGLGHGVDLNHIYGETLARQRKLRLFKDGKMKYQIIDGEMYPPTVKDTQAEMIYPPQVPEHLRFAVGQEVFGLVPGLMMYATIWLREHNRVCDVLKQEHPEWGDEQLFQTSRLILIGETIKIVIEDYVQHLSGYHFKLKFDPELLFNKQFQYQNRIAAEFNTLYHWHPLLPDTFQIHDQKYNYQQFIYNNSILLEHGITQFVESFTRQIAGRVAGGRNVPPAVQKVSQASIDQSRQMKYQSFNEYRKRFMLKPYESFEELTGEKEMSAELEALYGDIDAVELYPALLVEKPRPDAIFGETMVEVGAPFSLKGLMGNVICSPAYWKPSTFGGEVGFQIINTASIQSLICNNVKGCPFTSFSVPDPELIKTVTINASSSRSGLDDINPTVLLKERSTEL

[2] = biological target: T2, Tyrosine-protein phosphatase non-receptor type 1 (Homo sapiens, UniProt P18031); experiment: Inhibition of PTP1B (unknown origin) using pNPP as substrate by spectrophotometer analysis
T2 sequence (P18031 whole entry): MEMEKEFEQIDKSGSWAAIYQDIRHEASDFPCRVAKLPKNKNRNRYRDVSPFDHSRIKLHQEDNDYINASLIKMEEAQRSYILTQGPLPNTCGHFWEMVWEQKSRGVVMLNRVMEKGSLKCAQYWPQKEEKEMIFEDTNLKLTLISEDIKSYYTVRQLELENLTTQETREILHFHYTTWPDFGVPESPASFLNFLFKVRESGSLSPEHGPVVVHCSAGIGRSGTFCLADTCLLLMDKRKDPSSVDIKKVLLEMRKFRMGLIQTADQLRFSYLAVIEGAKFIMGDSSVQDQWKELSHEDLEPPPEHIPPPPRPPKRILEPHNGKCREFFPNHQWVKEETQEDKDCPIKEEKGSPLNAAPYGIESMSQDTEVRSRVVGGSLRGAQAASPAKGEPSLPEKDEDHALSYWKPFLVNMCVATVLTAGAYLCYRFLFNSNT

[3] = Inhibition of Saccharomyces cerevisiae alpha-glucosidase using p-nitrophenyl-alpha-D -glucopyranoside as substrate pre-incubated for 10 mins followed by substrate addition measured after 15 mins by absorbance based analysis
Acetylcholinesterase [4] = biological target: T3, Acetylcholinesterase (Homo sapiens, UniProt P22303); experiment: Inhibition of AChE (unknown origin)
T3 sequence (P22303 whole entry): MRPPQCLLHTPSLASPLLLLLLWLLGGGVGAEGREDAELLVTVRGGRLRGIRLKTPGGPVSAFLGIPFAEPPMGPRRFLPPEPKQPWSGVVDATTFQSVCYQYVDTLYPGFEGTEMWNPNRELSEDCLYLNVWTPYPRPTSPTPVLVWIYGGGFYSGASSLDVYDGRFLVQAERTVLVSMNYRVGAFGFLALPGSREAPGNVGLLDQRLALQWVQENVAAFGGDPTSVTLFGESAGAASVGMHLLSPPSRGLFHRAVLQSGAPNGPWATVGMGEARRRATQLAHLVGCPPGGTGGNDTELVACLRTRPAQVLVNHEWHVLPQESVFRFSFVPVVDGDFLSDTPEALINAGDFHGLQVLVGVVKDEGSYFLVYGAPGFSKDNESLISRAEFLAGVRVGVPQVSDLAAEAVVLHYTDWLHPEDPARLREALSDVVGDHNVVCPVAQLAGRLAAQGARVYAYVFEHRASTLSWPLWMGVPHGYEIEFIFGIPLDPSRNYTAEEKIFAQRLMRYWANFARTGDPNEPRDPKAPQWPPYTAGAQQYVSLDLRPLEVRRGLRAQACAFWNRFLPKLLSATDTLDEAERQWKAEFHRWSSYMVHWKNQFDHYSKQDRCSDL

[5] = biological target: T4, Pancreatic triacylglycerol lipase (Sus scrofa, UniProt P00591); experiment: Inhibition of porcine pancreatic lipase using p-Nitrophenyl butyrate substrate incubated for 15 mins by spectrophotometer analysis
T4 sequence (P00591 whole entry): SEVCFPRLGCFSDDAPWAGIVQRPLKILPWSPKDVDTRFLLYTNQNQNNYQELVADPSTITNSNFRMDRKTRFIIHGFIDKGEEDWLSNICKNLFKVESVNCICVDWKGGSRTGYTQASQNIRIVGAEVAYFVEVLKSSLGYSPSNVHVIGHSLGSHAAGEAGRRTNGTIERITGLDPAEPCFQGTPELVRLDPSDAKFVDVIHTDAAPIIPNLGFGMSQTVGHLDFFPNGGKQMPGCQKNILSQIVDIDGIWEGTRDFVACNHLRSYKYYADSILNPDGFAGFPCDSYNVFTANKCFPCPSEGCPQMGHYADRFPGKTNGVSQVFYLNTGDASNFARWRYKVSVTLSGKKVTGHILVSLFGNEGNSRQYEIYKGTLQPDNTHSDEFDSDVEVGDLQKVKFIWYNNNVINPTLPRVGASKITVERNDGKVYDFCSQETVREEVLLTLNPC

[6] = biological target: T1, Prostaglandin G/H synthase 2; experiment: Inhibition of COX-2 (unknown origin) by fluorescent inhibitor screening assay
Acetylcholinesterase [7] = biological target: T3, Acetylcholinesterase; experiment: Inhibition of human erythrocyte AChE using acetylthiocholine iodide as substrate incubated for 20 mins by DTNB reagent based spectrophotometric method
K562 = experiment: Cytotoxicity against human K562 cells assessed as cell growth inhibition by CCK-8 method; type: functional, cell-based
Staphylococcus aureus = experiment: Antibacterial activity against Staphylococcus aureus assessed as bacterial growth inhibition; type: functional, organism-based
[8] = biological target: T5, Tyrosine-protein kinase JAK3 (Homo sapiens, UniProt P52333); experiment: Inhibition of JAK3 (unknown origin) by FRET-based Z'-Lyte assay
T5 sequence (P52333 whole entry): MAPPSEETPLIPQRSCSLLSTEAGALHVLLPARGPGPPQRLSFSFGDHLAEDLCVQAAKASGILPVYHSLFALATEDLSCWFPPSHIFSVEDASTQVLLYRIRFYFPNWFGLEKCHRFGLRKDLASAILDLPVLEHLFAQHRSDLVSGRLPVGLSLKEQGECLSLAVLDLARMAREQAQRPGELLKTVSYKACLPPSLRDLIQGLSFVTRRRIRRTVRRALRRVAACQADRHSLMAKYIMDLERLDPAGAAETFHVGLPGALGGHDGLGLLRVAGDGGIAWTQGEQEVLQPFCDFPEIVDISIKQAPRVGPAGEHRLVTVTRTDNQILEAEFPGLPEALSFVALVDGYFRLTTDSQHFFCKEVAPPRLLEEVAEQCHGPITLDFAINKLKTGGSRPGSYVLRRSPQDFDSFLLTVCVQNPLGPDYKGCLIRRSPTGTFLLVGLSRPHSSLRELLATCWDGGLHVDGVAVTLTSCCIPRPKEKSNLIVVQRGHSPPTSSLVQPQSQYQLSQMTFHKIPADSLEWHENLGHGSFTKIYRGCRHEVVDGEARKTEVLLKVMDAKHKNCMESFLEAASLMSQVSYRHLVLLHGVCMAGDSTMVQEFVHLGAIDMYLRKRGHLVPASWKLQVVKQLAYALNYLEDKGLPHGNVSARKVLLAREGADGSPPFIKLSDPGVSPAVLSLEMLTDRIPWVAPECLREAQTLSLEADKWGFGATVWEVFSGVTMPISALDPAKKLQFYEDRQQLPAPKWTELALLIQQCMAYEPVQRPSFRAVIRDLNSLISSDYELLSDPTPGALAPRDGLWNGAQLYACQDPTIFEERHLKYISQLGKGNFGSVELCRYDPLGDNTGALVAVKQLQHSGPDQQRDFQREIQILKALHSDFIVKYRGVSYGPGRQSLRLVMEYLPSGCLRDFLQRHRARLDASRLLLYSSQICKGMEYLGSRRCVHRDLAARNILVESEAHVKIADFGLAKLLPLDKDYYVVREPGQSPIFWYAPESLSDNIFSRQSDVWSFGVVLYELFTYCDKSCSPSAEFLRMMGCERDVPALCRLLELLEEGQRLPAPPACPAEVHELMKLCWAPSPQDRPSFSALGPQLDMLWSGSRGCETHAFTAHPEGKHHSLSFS

HL-60 = experiment: Cytotoxicity against human HL-60 cells assessed as cell growth inhibition measured after 24 hrs by MTT assay; type: functional, cell-based; conditions: HL-60, 24 h
THP-1 = experiment: Cytotoxicity against human THP-1 cells assessed as cell growth inhibition measured after 24 hrs by MTT assay; type: functional, cell-based; conditions: THP-1, 24 h

O=C1C[C@]23CC[C@H](O)[C@]2(COC3=O)c2c(O)ccc(O)c21
IC50 [1]: 25.5 µM

CO[C@@H]1c2c3c(cc(O)c2C(=O)O[C@@H]1C)O[C@@]1(C)[C@@H](O)C[C@H]2C(C)(C)C(=O)C=C[C@]2(C)[C@@H]1C3
IC50 [2]: 63.1 µM

C/C(=C\Cc1c(O)cc2c(c1O)CN(CCCC[C@@H](C(=O)O)N1Cc3c(cc(O)c(C/C=C(\C)CC/C=C(\C)C(=O)O)c3O)C1=O)C2=O)CC/C=C(\C)C(=O)O
IC50 [3]: 39.2 µM

COc1ccc(-c2cc3c(c(=O)o2)C[C@]2(O)[C@@]4(C)CC[C@@H](O)C(C)(C)[C@]4(O)CC[C@@]2(C)O3)cc1
IC50 (Acetylcholinesterase [4]): 0.64 µM

COC1(c2cc(O)ccc2O)C=C(CC[C@@H]2C(C)(C)[C@@H]3CC[C@]2(C)O3)C(=O)O1 (some centres not stated)
IC50 [1]: 9.96 µM

C[C@@H]1Cc2c3c(c(Cl)c(O)c2C(=O)O1)O[C@@]1(C)[C@@H](O)C[C@H]2C(C)(C)C(=O)C(Cl)(Cl)C[C@]2(C)[C@@H]1C3
IC50 [2]: 71.6 µM

COC(=O)[C@H](Cc1ccccc1)N1Cc2c(cc(O)c(C/C=C(\C)CC/C=C(\C)C(=O)O)c2O)C1=O
IC50 [3]: 40.8 µM

CC(C)=CCC/C(C)=C/CCC1=C[C@@]2(OC1=O)c1cc(O)ccc1OC(=O)[C@]2(CC/C=C(\C)CCC=C(C)C)CC(=O)c1cc(O)ccc1O
IC50 [5]: 4 µM

C/C(=C/CC/C(C)=C/CC/C(=C/C(=O)c1cc(O)ccc1O)C(=O)O)CO
IC50 [6]: 3.47 µM

COC/C(C=O)=C\CCC1=CC(c2cc(O)ccc2O)OC1=O (configuration not stated)
IC50 (Acetylcholinesterase [7]): 8.52 µM

C=C(C)C1CCC2(C(=O)OCC)CC13Oc1c(C/C=C(\CO)CC/C=C(\C)CCC=C(C)C)cc(O)cc1-c1c(O)ccc(c13)O2 (racemic)
IC50 (K562): 7.68 µM

C=C(C)C1CCC2(C(=O)OCC)CC13Oc1c(C/C=C(/CC/C=C(\C)CCC=C(C)C)C(=O)O)cc(O)cc1-c1c(O)ccc(c13)O2 (racemic)
IC50 (Staphylococcus aureus): 5.43 µM

CC(=O)O[C@@H]1c2c3c(cc(O)c2C(=O)O[C@@H]1C)O[C@@]1(C)[C@@H](O)C[C@H]2C(C)(C)[C@@H](O)C=C[C@]2(C)[C@@H]1C3
IC50 [2]: 62.5 µM

CO[C@H]1OC(=O)[C@@]2(CC(=O)c3cc(O)ccc3O)C[C@@H]3[C@@H](CCC4=C[C@@H](c5cc(O)ccc5O)OC4=O)C(C=O)=CO[C@@H]3[C@@]12C (racemic)
IC50 [8]: < 10 µM

C/C(=C\CC/C(C)=C/C/C=C(/CC(=O)c1cc(O)ccc1O)C(=O)O)CO
IC50 [6]: 4.84 µM

COC(=O)CC1=C(C)[C@@H]2C[C@@]3(C)C(=O)O[C@H]4O[C@@H](C)C(=O)[C@](C(=O)OC)([C@H]43)[C@@]2(C)CC=C1C(C)(C)OC
IC50 (HL-60): 7.9 µM
IC50 (THP-1): 11.3 µM
